Each compound was assayed against T1, FXR (Rattus norvegicus, UniProt Q62735) (assay: Reporter gene transactivation assay). Conditions: Human embryonic kidney 293 cells transfected with rFXR, hRXRβ, hGrip1 and DR-4 or IR-1 luciferase reporter.
T1 construct: expressed in transfected cells; host or cells: Human embryonic kidney 293 cells
Type: cell-based
Method: Human embryonic kidney 293 cells were seeded into 48-well culture plates at 2×10^4 cells per well in a Dulbecco's modified Eagle's medium (DMEM) supplemented with 10% fetal bovine serum. After 24 hours, cells were transfected by a calcium phosphate coprecipitation method with 250 ng of the pGL3/DR-4-luc reporter gene which consists of three copies of AGGTCAagccAGGTCA (DR-4) or pGL3/IR-1-luc which consists of three copies of GGGTCAcTGACCC (IR-1) fused to nucleotides −56 to +109 of the human c-fos promoter in front of the firefly luciferase gene in the plasmid basic pGL3 (Promega, Madison, Wis.), 40 ng pSG5/hRXRβ, 40 ng pR5/rFXR,10 ng pSG5/hGrip1, 0.4 ng CMV/R-luc (transfection normalization reporter, Promega) and 250 ng carrier DNA per well. […] After another 12-24 hours, cells were washed with PBS and refed with DMEM supplemented with 4% delipidated fetal bovine serum. Chemicals dissolved in ethanol were added in duplicate to the medium so that the final concentration of alcohol was 0.2%. After 24-48 hours, cells were harvested and luciferase activity was measured with a commercial kit (Promega Dual luciferase II) on a Monolight luminometer (Becton Dickenson, Mountain View, Calif.). FXR dimerizes with RXR to form an FXR/RXR heterodimer, which binds to both DR-4 response elements and IR-1 response elements in a ligand-dependent manner and transactivates the reporter gene expression.

T1 sequence (Q62735 whole entry): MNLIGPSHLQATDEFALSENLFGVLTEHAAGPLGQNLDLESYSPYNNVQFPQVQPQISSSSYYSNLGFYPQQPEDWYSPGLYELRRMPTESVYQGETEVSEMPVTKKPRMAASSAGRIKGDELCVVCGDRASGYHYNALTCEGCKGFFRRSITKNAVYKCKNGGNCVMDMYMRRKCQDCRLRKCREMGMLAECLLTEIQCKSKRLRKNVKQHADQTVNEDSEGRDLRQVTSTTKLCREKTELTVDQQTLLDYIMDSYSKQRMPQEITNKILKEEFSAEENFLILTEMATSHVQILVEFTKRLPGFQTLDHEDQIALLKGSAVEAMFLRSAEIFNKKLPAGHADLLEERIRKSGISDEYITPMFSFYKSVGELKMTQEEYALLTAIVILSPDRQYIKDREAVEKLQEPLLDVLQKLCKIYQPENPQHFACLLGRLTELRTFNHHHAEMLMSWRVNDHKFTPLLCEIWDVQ
T1 sequence (P28702 whole entry partner): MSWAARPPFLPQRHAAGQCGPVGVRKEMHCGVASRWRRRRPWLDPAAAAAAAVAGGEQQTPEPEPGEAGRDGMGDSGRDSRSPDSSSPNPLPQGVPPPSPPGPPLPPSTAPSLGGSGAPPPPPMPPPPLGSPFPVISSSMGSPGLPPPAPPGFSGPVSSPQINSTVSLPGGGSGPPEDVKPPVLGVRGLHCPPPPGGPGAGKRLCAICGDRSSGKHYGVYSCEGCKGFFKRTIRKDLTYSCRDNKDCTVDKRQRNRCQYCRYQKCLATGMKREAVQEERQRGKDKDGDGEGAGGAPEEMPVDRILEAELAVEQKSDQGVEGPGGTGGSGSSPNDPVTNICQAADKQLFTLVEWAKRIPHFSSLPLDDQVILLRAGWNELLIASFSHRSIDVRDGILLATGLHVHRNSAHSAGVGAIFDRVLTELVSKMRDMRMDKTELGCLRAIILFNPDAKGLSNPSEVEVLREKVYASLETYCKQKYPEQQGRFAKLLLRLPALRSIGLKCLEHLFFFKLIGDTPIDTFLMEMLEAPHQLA
T1 sequence (Q15596 whole entry partner): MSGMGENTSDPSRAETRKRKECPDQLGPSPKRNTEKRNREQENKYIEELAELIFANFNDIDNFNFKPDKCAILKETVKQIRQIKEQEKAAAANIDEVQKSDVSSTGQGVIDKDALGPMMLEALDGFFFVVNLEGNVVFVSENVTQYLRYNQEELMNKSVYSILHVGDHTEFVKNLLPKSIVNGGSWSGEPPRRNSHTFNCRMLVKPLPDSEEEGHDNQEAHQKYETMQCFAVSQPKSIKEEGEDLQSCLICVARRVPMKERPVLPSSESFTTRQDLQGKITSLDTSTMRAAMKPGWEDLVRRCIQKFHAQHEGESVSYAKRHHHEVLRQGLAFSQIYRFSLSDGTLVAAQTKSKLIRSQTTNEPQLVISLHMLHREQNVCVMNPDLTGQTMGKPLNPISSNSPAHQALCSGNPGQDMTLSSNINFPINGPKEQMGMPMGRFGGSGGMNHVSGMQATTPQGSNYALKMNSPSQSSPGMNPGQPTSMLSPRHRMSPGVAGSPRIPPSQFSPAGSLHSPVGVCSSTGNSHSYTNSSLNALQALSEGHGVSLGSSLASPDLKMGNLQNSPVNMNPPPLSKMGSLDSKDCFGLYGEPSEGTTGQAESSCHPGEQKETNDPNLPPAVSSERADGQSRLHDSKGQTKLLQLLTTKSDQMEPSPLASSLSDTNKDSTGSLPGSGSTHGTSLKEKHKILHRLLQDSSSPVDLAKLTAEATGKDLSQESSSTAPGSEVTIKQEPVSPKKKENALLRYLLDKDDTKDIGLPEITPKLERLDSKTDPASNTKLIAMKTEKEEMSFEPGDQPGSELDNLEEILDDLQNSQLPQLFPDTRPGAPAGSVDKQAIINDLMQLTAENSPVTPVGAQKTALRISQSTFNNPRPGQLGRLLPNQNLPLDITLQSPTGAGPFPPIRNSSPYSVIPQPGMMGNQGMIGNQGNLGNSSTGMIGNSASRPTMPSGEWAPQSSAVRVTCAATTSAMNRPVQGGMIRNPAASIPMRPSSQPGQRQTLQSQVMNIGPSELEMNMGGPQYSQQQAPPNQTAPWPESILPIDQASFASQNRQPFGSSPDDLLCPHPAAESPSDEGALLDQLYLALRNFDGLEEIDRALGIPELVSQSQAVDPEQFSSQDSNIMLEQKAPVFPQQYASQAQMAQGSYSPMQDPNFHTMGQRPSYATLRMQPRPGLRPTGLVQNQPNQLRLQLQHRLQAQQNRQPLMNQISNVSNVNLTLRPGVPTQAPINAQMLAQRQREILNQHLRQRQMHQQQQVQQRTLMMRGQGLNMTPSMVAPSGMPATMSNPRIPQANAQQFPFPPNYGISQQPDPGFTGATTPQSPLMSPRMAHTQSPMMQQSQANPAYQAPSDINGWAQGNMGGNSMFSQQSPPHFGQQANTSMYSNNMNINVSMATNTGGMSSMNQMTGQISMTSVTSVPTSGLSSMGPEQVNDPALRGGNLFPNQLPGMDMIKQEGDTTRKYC

Compound | agonists of FXF (reporter gene transactivation, luciferase activity)
C[C@H](CCC(=O)N(C)C)[C@H]1CC[C@H]2[C@@H]3CC[C@@H]4CCCC[C@]4(C)[C@H]3CC[C@]12C [N,N-dimethyl-5β-cholanoic acid-24-amide] | potent agonists
CCOC(=O)CNC(=O)CC[C@@H](C)[C@H]1CC[C@H]2[C@@H]3CC[C@@H]4CCCC[C@]4(C)[C@H]3CC[C@]12C [N-ethoxycarbonylmethyl-5β-cholanoic acid-24-amide] | potent agonists
C[C@H](CCC(=O)NCCCl)[C@H]1CC[C@H]2[C@@H]3CC[C@@H]4CCCC[C@]4(C)[C@H]3CC[C@]12C [N-(2-chloroethyl)-5β-cholanoic acid-24-amide] | potent agonists
CC(CCS(=O)(=O)O)C1CCC2C3CCC4CCCCC4(C)C3CCC12C (centres unmarked) [cholanosulfonic acid, 3-(10,13-Dimethyl-hexadecahydro-cyclopenta[a]phenanthren-17-yl)-butane-1-sulfonic acid] | potent agonists
C[C@H](CCC(=O)NCC(F)(F)F)[C@H]1CC[C@H]2[C@@H]3CC[C@@H]4CCCC[C@]4(C)[C@H]3CC[C@]12C [N-(2,2,2-trifluoroethyl)-5β-cholanoic acid-24-amide] | potent agonists
C[C@H](CCC(=O)NCC(=O)O)[C@H]1CC[C@H]2[C@@H]3CC[C@@H]4CCCC[C@]4(C)[C@H]3CC[C@]12C [N-carboxymethyl-5β-cholanoic acid-24-amide] | potent agonists

The remaining lines, values ahead:

agonists of FXF (reporter gene transactivation, luciferase activity) | Compound
potent agonists | CNN(C)C(=O)CC[C@@H](C)[C@H]1CC[C@H]2[C@@H]3CC[C@@H]4CCCC[C@]4(C)[C@H]3CC[C@]12C [N-methyl-N-methylamino-5β-cholanoic acid-24-amide]
potent agonists | CC(CCC(=O)O)C1CCC2C3CC=C4C=CCCC4(C)C3CCC12C (centres unmarked) [Δ^3,5-cholanoic acid, 4-(10,13-Dimethyl-2,7,8,9,10,11,12,13,14,15,16,17-dodecahydro-1H-cyclopenta[a]phenanthren-17-yl)-pentanoic acid]
potent agonists | C[C@H](CCC(=O)NCCS(=O)(=O)O)[C@H]1CC[C@H]2[C@@H]3CC[C@@H]4CCCC[C@]4(C)[C@H]3CC[C@]12C [N-sulfonylethyl-5β-cholanoic acid-24-amide]
potent agonists | C[C@H](CCC(=O)N(C)CC(=O)O)[C@H]1CC[C@H]2[C@@H]3CC[C@@H]4CCCC[C@]4(C)[C@H]3CC[C@]12C [cholamide, N-methyl-N-carboxymethyl-5β-cholanoic acid-24-amide]
potent agonists | CON(C)C(=O)CC[C@@H](C)[C@H]1CC[C@H]2[C@@H]3CC[C@@H]4CCCC[C@]4(C)[C@H]3CC[C@]12C [N-methyl-N-methoxy-5β-cholanoic acid-24-amide]
potent agonists | C[C@H](CCC(=O)NNC=O)[C@H]1CC[C@H]2[C@@H]3CC[C@@H]4CCCC[C@]4(C)[C@H]3CC[C@]12C [N-formylamino-5β-cholanoic acid-24-amide]
potent agonists | CNC(=O)CC[C@@H](C)[C@H]1CC[C@H]2[C@@H]3CC[C@@H]4CCCC[C@]4(C)[C@H]3CC[C@]12C [N-methyl-5β-cholanoic acid-24-amide]

Same assay, conditions: relative to GW4064

Compound | higher efficacy than GW4064, a known non-steroidal FXR agonist [times]
C[C@H](CCC(=O)N(C)CC(=O)O)[C@H]1CC[C@H]2[C@@H]3CC[C@@H]4CCCC[C@]4(C)[C@H]3CC[C@]12C [cholamide, N-methyl-N-carboxymethyl-5β-cholanoic acid-24-amide] | 200

Source: US20040014734A1, “Farnesoid X-activated receptor agonists” (priority 2002, published 2004)
